Test results from article PMC3116189, “Novel Natural Inhibitors of CYP1A2 Identified by in Silico and in Vitro Screening” (International Journal of Molecular Sciences, 2011).
Structures can show the parent of a compound that is named as a salt.

target: T1, CYP1A2 (Homo sapiens, UniProt P05177); test: in vitro; assay type: biochemical; settings: 1 μM active ingredient, Rh CYP1A2-mediated phenacetin O-deethylation, test dataset of 202 herb ingredients
T1 sequence (P05177 1-516): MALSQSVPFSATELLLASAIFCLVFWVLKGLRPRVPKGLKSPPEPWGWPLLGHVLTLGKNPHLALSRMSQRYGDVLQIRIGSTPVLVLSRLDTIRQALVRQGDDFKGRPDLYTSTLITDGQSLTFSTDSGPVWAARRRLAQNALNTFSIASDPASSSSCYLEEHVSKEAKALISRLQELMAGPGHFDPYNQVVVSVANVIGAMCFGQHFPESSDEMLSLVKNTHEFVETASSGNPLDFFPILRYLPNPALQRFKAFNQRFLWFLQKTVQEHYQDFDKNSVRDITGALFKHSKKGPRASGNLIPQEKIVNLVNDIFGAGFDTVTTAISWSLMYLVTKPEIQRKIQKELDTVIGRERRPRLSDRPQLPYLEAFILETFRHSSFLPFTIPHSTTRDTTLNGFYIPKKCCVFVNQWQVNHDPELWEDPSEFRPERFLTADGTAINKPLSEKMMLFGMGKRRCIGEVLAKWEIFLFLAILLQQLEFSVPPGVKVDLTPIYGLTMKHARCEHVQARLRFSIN
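Note: recombinant CYP1A2 incubated for 1 h at 37 °C, with the reaction started by an NADPH-generating system.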

Compound | % of Control Indication Activity (Mean)
COc1c2c(cc3oc(C)cc(=O)c13)OC(C(C)(C)O[C@@H]1O[C@H](CO)[C@@H](O)[C@H](O)[C@H]1O)C2 (stereo partly drawn) [5-O-Methylvisammioside] | > 90%
Oc1cc(O)c2c(c1)O[C@H](c1ccc(O)c(O)c1)[C@@H](O)C2 [(+)-Catechin] | > 90%
C=C1C(=O)O[C@@H]2C[C@@]3(C)CCC[C@H](C)C3=C[C@H]12 [Alantolactone] | > 90%
O=C1CCC[C@@H]2[C@H]3CCC[N@+]4([O-])CCC[C@@H](CN12)[C@@H]34 [Ammothamnine] | > 90%
CC(=O)O[C@H]1C[C@]2(O)[C@@H]3CC[C@@H]4C[C@@H](O)CC[C@]4(C)[C@H]3CC[C@]2(C)[C@H]1c1ccc(=O)oc1 [Bufatalin] | > 90%
CCOC(=O)/C=C/c1ccc(O)c(O)c1 [Caffeic acid ethyl ester] | > 90%
COc1cc(O)cc(O)c1C(=O)/C=C/c1ccccc1 [Cardamonin] | > 90%
COc1cc2c(c(OC)c1OC)-c1c(cc(OC)c(OC)c1OC)C[C@H](C)[C@H](C)C2 [Deoxyschizandrin] | > 90%
COc1cc(/C=C/C(=O)O)ccc1O [Ferulic acid] | > 90%
COc1ccc([C@H]2OC[C@H]3[C@@H]2CO[C@H]3c2ccc(O[C@@H]3O[C@H](CO)[C@@H](O)[C@H](O)[C@H]3O)c(OC)c2)cc1OC [Forsythin] | > 90%

same assay, conditions: human, recombinant enzyme, pH 7.4

Compound | activity at 1 h, 1 μM
O=Cc1ccc(O)c(O)c1 [3,4-Dihydroxybenzaldehyde] | > 90%
O=C1c2cccc(O)c2C(=O)c2c(O)cc(CO)cc21 [Aloe-emodin] | > 90%
O=c1cc(-c2ccccc2)oc2cc(O)c(O)c(O)c12 [Baicalein] | > 90%
O=C(O)[C@H]1O[C@@H](Oc2cc3oc(-c4ccccc4)cc(=O)c3c(O)c2O)[C@H](O)[C@@H](O)[C@@H]1O [Baicalin] | > 90%
O=c1cc(-c2ccccc2)oc2cc(O)cc(O)c12 [Chrysin] | 4.6%
Cc1cc(O)c2c(c1)C(=O)c1cccc(O)c1C2=O [Chrysophanol] | 77.7%
O=C/C=C/c1ccccc1 [Cinnamaldehyde] | > 90%
O=C(O)/C=C/c1ccccc1 [Cinnamic acid] | > 90%
O=c1c(-c2ccc(O)cc2)coc2cc(O)ccc12 [Daidzein] | > 90%
C=C1CC[C@H]2C(=C)CC[C@H]3C(=C)C(=O)O[C@@H]3[C@@H]12 [Dehydrocostus lactone] | > 90%
Cc1cc(O)c2c(c1)C(=O)c1cc(O)cc(O)c1C2=O [Emodin] | > 90%
O=c1ccc2cc(O)c(O)cc2o1 [Esculetin] | > 90%
O=C(O)c1cc(O)c(O)c(O)c1 [Gallic acid] | > 90%

same assay, conditions: human, recombinant enzyme, pH 7.4; 1 μM active ingredient, Rh CYP1A2-mediated phenacetin O-deethylation, test dataset of 202 herb ingredients; read-out: % of Control Indication Activity (Mean)

Compound | activity at 1 h, 1 μM
C=CCc1ccc(O)c(OC)c1 [Eugenol] | > 90%
COc1ccc2cc1Oc1ccc(cc1)C[C@H]1c3cc(c(OC)cc3CCN1C)Oc1c(O)c(OC)cc3c1[C@H](C2)N(C)CC3 [Fangchinoline] | > 90%

same assay, conditions: human, recombinant human CYP1A2, pH 7.4, probe phenacetin (25 μM), O-deethylation to acetaminophen; 1 μM active ingredient, Rh CYP1A2-mediated phenacetin O-deethylation, test dataset of 202 herb ingredients; read-out: % of Control Indication Activity (Mean)

Compound | activity at 1 h, 1 μM
COc1ccc(C=O)c(O)c1 [4-Methoxysalicylaldehyde] | > 90%
O=Cc1ccc(CO)o1 [5-Hydroxymethylfurfural] | > 90%
Oc1cc(O)c2c(c1)O[C@H](c1ccc(O)c(O)c1)[C@H](O)C2 [(−)-Epicatechin] | > 90%
COc1cc(O)cc2c1C(=O)C[C@@H](c1ccccc1)O2 [Alpinetin] | > 90%
C=C1CC[C@@H]2[C@](C)(CO)[C@H](O)CC[C@@]2(C)[C@@H]1C/C=C1/C(=O)OC[C@H]1O [Andrographolide] | > 90%
COc1ccc(C[C@H]2COC(=O)[C@@H]2Cc2ccc(O[C@@H]3O[C@H](CO)[C@@H](O)[C@H](O)[C@H]3O)c(OC)c2)cc1OC [Arctiin] | > 90%
O=C1c2c(O)cccc2C([C@@H]2O[C@H](CO)[C@@H](O)[C@H](O)[C@H]2O)c2cc(CO)cc(O)c21 (stereo partly drawn) [Bar baloin] | > 90%
COc1ccc2cc3[n+](cc2c1OC)CCc1cc2c(cc1-3)OCO2 [Berberine Hydrochloride] | > 90%
COc1c(O)cc2c(c1O)[C@@H]1O[C@H](CO)[C@@H](O)[C@H](O)[C@H]1OC2=O [Bergenin] | > 90%
C[N+](C)(C)CC(=O)O [Betaine] | > 90%
CC(=O)OC1CC2CCC1(C)C2(C)C (stereo not drawn) [Bornylacetate] | > 90%
O=C(O)/C=C/c1ccc(O)c(O)c1 [Caffeic acid] | > 90%
Cc1ccc(C(C)C)cc1O [Carvacrol] | > 90%
OC[C@H]1O[C@@H](O[C@@H]2OC=C[C@H]3[C@H](O)[C@@H]4O[C@]4(CO)[C@@H]23)[C@H](O)[C@@H](O)[C@@H]1O [Catalpo l] | > 90%
O=C(/C=C/c1ccc(O)c(O)c1)O[C@@H]1C[C@](O)(C(=O)O)C[C@@H](O)[C@H]1O [Chlorogenic acid] | > 90%
C=C1C(=O)O[C@@H]2/C=C(\C)CC/C=C(\C)CC[C@@H]12 [Costunolide] | > 90%
COc1cc(/C=C/C(=O)CC(=O)/C=C/c2ccc(O)c(OC)c2)ccc1O [Curcumin] | > 90%
COc1c2ccc(-c3ccccc3)oc-2cc(=O)c1C [Dracorhodin] | 21.1%
CC12CCC(CC1)C(C)(C)O2 [Eucalyptol] | > 90%
COc1ccc(-c2coc3cc(O)ccc3c2=O)cc1 [Formononetin] | > 90%
COc1cc2ccc(=O)oc2c(O)c1O [Fraxetin] | > 90%
CC1=C2C(=O)O[C@@H](c3ccoc3)[C@]2(C)CCC1 [Fraxinellone] | > 90%
CC(C)=CCC[C@](C)(O[C@@H]1O[C@H](CO)[C@@H](O)[C@H](O)[C@H]1O)[C@H]1CC[C@]2(C)[C@@H]1[C@H](O)C[C@@H]1[C@@]3(C)CC[C@H](O)C(C)(C)[C@@H]3[C@@H](O)C[C@]12C [Ginsenoside F1] | > 90%

same assay, conditions: human, recombinant human CYP1A2, pH 7.4, probe phenacetin (25 μM), O-deethylation to acetaminophen; 1 μM test compound, 25 μM phenacetin, average of duplicate determinations; read-out: % of Control Indication Activity

Compound | activity at 1 h, 1 μM
COc1cc(C(O)C(CO)Oc2ccc(/C=C\CO)cc2OC)ccc1O (single isomer, unassigned; (-)) [zhang 779, (−)-Threo-guaiacylglycerol-8-O-4′-(coniferyl alcohol) ether] | > 90%

same assay, conditions: recombinant enzyme

Compound | % of Control Indication Activity (Mean)
C=C1CC[C@@H]2[C@](C)(CO)[C@H](O)CC[C@@]2(C)[C@@H]1/C=C/C1=CCOC1=O [Dehydroandrographolide] | > 90

same assay, conditions: recombinant enzyme, pH 7.4

Compound | activity
CN1[C@@H]2CC[C@H]1C[C@@H](OC(=O)C(CO)c1ccccc1)C2 (stereo partly drawn) [Atropine Sulfate] | > 90%
CN[C@@H](C)[C@H](O)c1ccccc1 [Ephedrine] | > 90%

same assay, conditions: recombinant enzyme, pH 7.4; 1 μM active ingredient, Rh CYP1A2-mediated phenacetin O-deethylation, test dataset of 202 herb ingredients; read-out: % of Control Indication Activity (Mean)

Compound | activity at 1 h, 1 μM | activity
CCN1C[C@]2(COC)[C@H](O)C[C@H](OC)[C@@]34[C@@H]5C[C@@]6(O)[C@H](OC(=O)c7ccccc7)[C@@H]5[C@@](OC(C)=O)([C@@H]([C@H](OC)[C@H]23)[C@@H]14)[C@@H](O)[C@@H]6OC [Aconitine] | > 90% | –
N#C[C@H](O[C@@H]1O[C@H](CO[C@@H]2O[C@H](CO)[C@@H](O)[C@H](O)[C@H]2O)[C@@H](O)[C@H](O)[C@H]1O)c1ccccc1 [Amygdalin] | – | > 90%
COc1ccc(C=O)cc1 [Anisaldehyde] | – | > 90%
COC(=O)C1=CCCN(C)C1 [Arecoline] | – | > 90%
COc1cccc2c1cc([N+](=O)[O-])c1c(C(=O)O)cc3c(c12)OCO3 [Aristolochic Acid] | > 90% | –
CC(C)(C)[C@]1(O)CC2OC(=O)CC23C(=O)OC2OC(=O)[C@H](O)C231 (stereo partly drawn) [Bilobalide] | > 90% | –
C[C@@]12C(=O)OC(=O)[C@]1(C)[C@H]1CC[C@@H]2O1 [Cantharidin] | > 90% | –
CC1=C2C[C@H]3[C@@H](CC=C4C[C@@H](O)CC[C@@]43C)[C@@H]2CC[C@]12O[C@@H]1C[C@H](C)CN[C@H]1[C@H]2C [Cyclopamine] | > 90% | –
OCc1ccc(O[C@@H]2O[C@H](CO)[C@@H](O)[C@H](O)[C@H]2O)cc1 [Gastrodin] | – | > 90%
COC(=O)C1=CO[C@@H](O[C@@H]2O[C@H](CO)[C@@H](O)[C@H](O)[C@H]2O)[C@@H]2C(CO)=CC[C@H]12 [Geniposide] | – | > 90%
C[C@@H]1C(=O)O[C@H]2C[C@@]34[C@H]5C[C@@H](C(C)(C)C)[C@]36[C@@H](OC(=O)[C@@H]6O)O[C@@]4(C(=O)O5)[C@]21O [Ginkgolide A] | – | > 90%
